Assay results from US6040149A, “Assay for identifying agents which act on the ceramide-activated protein kinase, kinase suppressor of ras, and methods of using said agents” (priority 1997, dated 2000).

Experiments:
[1] = test system: ceramide-activated protein kinase; experiment: CAP kinase activation in HL-60 cells (renaturation and autophosphorylation); format: cell-based, human (HL-60 cells); conditions: TPA 100 ng/ml
Method: Stimulation of ceramide-activated protein (CAP) kinase by lipid A. On the day of an experiment, HL-60 cells were resuspended (1×10^6 cells ml^-1) into serum-free RPMI 1640 containing 5 μg ml^-1 insulin and transferrin. After 2 h, cells were stimulated with lipid A (Escherichia Coli) or diluent (DMSO, <0.01%). Ceramide-activated protein kinase contained within microsomal membranes was detected by renaturation and autophosphorylation. Briefly, membrane proteins (200 μg per lane) were separated by SDS-PAGE (10%), and the gel was washed with two changes of buffer (50 mM Tris, pH 7.4, 5 mM 2-mercaptoethanol) containing 20% 2-propanol at room temperature for 1 h, and once in buffer without 2-propanol for 1 h. Denaturation was accomplished by incubation of the gel in two changes of 6M guanidinium HCl in wash buffer for 1 h each. Renaturation was accomplished by incubation of the gel overnight at 4° C. in wash buffer containing 0.04% Tween-20. The gel was then equilibrated for 10 min at room temperature in kinase reaction mixture (25 mM HEPES, pH 7.4, 10 mM MgCl2, 0.5 mM EGTA and 5 mM NaF) and [γ-^32 p] ATP (50 μM final concentration; 1000 dpm pmol^-1) was added. Autophosphorylation was terminated by removal of the reaction mixture. The gel was washed with 6 changes of buffer (5% trichloroacetic acid, 1% sodium pyrophosphate) for 2 h and subjected to autoradiography. Top panel--Time course of lipid A activation. Bottom panel--Dose response at 5 minutes of lipid A stimulation. Autoradiograms represent one of three similar studies in both panels A and B.
On the day of an experiment, cells were resuspended (1×10^6 cells ml^-1) into serum-free RPMI 1640 containing 5 μg ml^-1 insulin and transferrin. After 2 h, cells were stimulated with lipid A or diluent (DMSO, <0.01% ). […] The postnuclear supernate was centrifuged at 200,000×g for 30 min and microsomal membranes were resuspended ([…]) into homogenizing buffer. Ceramide-activated protein kinase was detected by renaturation and autophosphorylation. Briefly, membrane proteins (200 μg per lane) were separated by SDS-PAGE (10%), and the gel was washed with two changes of buffer (50 mM Tris, pH 7.4, 5 mM 2-mercaptoethanol) containing 20% 2-propanol at room temperature for 1 h, and once in buffer without 2-propanol for 1 h. Denaturation was accomplished by incubation of the gel in two changes of 6M guanidinium HCl in wash buffer for 1 h each. Renaturation was accomplished by incubation of the gel overnight at 4° C. in wash buffer containing 0.04% Tween-20. The gel was then equilibrated for 10 min at room temperature in kinase reaction mixture (25 mM HEPES, pH 7.4, 10 mM MgCl2, 0.5 mM EGTA and 5 mM NaF) and [γ-^32 P] ATP (50 μM final concentration; 1000 dpm pmol^-1. Autophosphorylation was terminated by removal of the reaction mixture. The gel was washed with 6 changes of buffer (5% trichloracetic acid, 1% sodium pyrophosphate) for 2 h and subjected to autoradiography.
For studies involving activation of ceramide-activated protein kinase by LPS, HL-60 cells (13×10^6 ml^-1) were handled as above, and LPS (Salmonella typhosa, 50 ng ml^-1), recombinant LBP (1.7 μg ml^-1) or both LPS and LBP were added for the times indicated. Isolation of microsomal membranes and autophosphorylation of ceramide-activated protein kinase were performed as above.

[2] = test system: ceramide-activated protein kinase; experiment: EGFR peptide phosphorylation by kinase in A-431 microsomal membranes / postnuclear supernatant; format: biochemical, human (A-431 epidermoid carcinoma cells)

Compound	activation of CAP kinase [1]	EGFR peptide phosphorylation, fold of control ([2]; 2 minutes of stimulation, maximal effect for ceramide at 1 μM)	effect on EGFR peptide phosphorylation ([2]; words)
CCCCCCCCCCCCCC(=O)O[C@@H]1[C@@H](C)[C@@]2(O)[C@@H](C=C(CO)C[C@]3(O)C(=O)C(C)=C[C@@H]23)[C@@H]2C(C)(C)[C@]12OC(C)=O [TPA, 12-0-tetradecanoylphorbol-13-acetate]	did not activate CAP kinase		
CCCCCCCCCCCCC/C=C/[C@@H](O)[C@@H](N)CO [sphingosine]		1.6 fold of control	similarly effective
